The compounds below were run against T1, LRRK2 (Homo sapiens, UniProt Q5S007, G2019S) (assay: In Vitro LRRK2 LabChip Assay (LRRK2 Ki)). Details: Table 5 compounds (formula I).
T1 construct: purchased Invitrogen PV4882
Type: biochemical
Method: In Vitro LRRK2 LabChip Assay
This assay was used to determine a compound's potency in inhibiting activity of LRRK2 by determining, Kiapp, IC50, or percent inhibition values. In a polypropylene plate, LRRK2, fluorescently-labeled peptide substrate, ATP and test compound were incubated together. Using a LabChip 3000 (Caliper Life Sciences), after the reaction the substrate was separated by capillary electrophoresis into two populations: phosphorylated and unphosphorylated. The relative amounts of each were quantitated by fluorescence intensity. LRRK2 Ki was determined according to the equation: Y=V0*(1−((x+Ki*(1+S/Km)+Et)/(2*Et)−(((x+Ki*(1+S/Km)+Et)^2−(4*Et*x))^0.5)/(2*Et))). Ki values in Table 4 and elsewhere herein are shown in μM.
Assay conditions and materials used were as follows:
LRRK2 Wild type in 5 mM MgCl2: 15 nM (Invitrogen lot #500607F)
Kinase reaction time: 2 hours
Wild type in 5 mM MgCl2: 80 μM
Solid Support: Black 50 μL volume polypropylene 384 well plate (MatriCal cat # MP101-1-PP)
Kinase: LRRK2 G2019S (Invitrogen cat #PV4882). • LRRK2 Wild type (Invitrogen cat #PV4874).
Substrate: 5FAM-[…]-CONH2
Non-binding plate: 384 well clear V-bottom polypropylene plates (Greiner cat #781280).
ATP: 10 mM ATP (Cell Signaling cat #9804).
Coating Reagent #3: Coating Reagent #3 (Caliper).
Complete Reaction Buffer: H2O/25 mM Tris, pH 8.0/5 mM MgCl2/2 mM DTT/0.01% Triton X-100.
Stop Solution: H2O/100 mM HEPES, pH 7.2/0.015% Brij-35/0.2% Coating Reagent #3/20 mM EDTA.
Separation Buffer: H2O/100 mM HEPES, pH 7.2/0.015% Brij-35/0.1% Coating Reagent #3/1:200 Coating Reagent #8/10 mM EDTA/5% DMSO.
Compound Plate Preparation:
For serial dilutions, 34.6 μl DMSO was added to columns 3-24. For the assay controls, 37.5 μl DMSO was added to columns 1 and 2 of rows A and P. a, d and 50 μl 25 μM G-028831 (Staurosporine) was added to columns 1 and 2, row B. For the samples: to start at 100 μM, 37.5 μl DMSO was to columns 1 and 2, then 12.5 μl 10 mM compound; to start at 10 μM, 78 μl DMSO was added to columns 1 & 2, then 2 μl 10 mM compound; and to start at 1 μM, 25 μM compound (2 μl 10 mM cmpd+798 μl DMSO) was added to empty columns 1 and 2. A Precision instrument was used to perform 1:3.16 serial dilutions (“PLK_BM_serial_halflog”).
ATP was diluted to 282.1 μM in Complete Kinase Buffer (final concentration was 130 μM).
Total and Blank Preparation:
In Complete Reaction Buffer, substrate was diluted to 4 μM. Equal volumes of Complete Reaction Buffer and 4 μM substrate were combined to obtain the blank. Equal volumes of Complete Reaction Buffer and 4 μM substrate were combined and to the combined solution was added 2× final LRRK2 concentration.
To a 50 μl polypropylene plate, 5 μl/well buffer/substrate was added by hand to Blank wells. A Biomek FX was used to start the kinase reaction (“PLK SAR 23 ATP”). The following were added to the appropriate wells:
5 μl/well compound/ATP in Assay Plate;
5 μl/well kinase/substrate in Assay Plate;
The plate was incubated for 2 hours in the dark. Biomek FX was used to stop the kinase reaction (“PLK Stop”), and 10 μl/well Stop solution was added to the Assay Plate. Results were read on the LabChip 3000.
The LabChip 3000 was run using the job “LRRK2 IC50” with the following job settings:
Downstream voltage: −500 V
Upstream voltage: −2350 V
Post sample buffer sip time: 75 seconds
Post dye buffer sip time: 75 seconds
Final delay time: 200 seconds

T1 sequence (Q5S007 whole entry G2019S): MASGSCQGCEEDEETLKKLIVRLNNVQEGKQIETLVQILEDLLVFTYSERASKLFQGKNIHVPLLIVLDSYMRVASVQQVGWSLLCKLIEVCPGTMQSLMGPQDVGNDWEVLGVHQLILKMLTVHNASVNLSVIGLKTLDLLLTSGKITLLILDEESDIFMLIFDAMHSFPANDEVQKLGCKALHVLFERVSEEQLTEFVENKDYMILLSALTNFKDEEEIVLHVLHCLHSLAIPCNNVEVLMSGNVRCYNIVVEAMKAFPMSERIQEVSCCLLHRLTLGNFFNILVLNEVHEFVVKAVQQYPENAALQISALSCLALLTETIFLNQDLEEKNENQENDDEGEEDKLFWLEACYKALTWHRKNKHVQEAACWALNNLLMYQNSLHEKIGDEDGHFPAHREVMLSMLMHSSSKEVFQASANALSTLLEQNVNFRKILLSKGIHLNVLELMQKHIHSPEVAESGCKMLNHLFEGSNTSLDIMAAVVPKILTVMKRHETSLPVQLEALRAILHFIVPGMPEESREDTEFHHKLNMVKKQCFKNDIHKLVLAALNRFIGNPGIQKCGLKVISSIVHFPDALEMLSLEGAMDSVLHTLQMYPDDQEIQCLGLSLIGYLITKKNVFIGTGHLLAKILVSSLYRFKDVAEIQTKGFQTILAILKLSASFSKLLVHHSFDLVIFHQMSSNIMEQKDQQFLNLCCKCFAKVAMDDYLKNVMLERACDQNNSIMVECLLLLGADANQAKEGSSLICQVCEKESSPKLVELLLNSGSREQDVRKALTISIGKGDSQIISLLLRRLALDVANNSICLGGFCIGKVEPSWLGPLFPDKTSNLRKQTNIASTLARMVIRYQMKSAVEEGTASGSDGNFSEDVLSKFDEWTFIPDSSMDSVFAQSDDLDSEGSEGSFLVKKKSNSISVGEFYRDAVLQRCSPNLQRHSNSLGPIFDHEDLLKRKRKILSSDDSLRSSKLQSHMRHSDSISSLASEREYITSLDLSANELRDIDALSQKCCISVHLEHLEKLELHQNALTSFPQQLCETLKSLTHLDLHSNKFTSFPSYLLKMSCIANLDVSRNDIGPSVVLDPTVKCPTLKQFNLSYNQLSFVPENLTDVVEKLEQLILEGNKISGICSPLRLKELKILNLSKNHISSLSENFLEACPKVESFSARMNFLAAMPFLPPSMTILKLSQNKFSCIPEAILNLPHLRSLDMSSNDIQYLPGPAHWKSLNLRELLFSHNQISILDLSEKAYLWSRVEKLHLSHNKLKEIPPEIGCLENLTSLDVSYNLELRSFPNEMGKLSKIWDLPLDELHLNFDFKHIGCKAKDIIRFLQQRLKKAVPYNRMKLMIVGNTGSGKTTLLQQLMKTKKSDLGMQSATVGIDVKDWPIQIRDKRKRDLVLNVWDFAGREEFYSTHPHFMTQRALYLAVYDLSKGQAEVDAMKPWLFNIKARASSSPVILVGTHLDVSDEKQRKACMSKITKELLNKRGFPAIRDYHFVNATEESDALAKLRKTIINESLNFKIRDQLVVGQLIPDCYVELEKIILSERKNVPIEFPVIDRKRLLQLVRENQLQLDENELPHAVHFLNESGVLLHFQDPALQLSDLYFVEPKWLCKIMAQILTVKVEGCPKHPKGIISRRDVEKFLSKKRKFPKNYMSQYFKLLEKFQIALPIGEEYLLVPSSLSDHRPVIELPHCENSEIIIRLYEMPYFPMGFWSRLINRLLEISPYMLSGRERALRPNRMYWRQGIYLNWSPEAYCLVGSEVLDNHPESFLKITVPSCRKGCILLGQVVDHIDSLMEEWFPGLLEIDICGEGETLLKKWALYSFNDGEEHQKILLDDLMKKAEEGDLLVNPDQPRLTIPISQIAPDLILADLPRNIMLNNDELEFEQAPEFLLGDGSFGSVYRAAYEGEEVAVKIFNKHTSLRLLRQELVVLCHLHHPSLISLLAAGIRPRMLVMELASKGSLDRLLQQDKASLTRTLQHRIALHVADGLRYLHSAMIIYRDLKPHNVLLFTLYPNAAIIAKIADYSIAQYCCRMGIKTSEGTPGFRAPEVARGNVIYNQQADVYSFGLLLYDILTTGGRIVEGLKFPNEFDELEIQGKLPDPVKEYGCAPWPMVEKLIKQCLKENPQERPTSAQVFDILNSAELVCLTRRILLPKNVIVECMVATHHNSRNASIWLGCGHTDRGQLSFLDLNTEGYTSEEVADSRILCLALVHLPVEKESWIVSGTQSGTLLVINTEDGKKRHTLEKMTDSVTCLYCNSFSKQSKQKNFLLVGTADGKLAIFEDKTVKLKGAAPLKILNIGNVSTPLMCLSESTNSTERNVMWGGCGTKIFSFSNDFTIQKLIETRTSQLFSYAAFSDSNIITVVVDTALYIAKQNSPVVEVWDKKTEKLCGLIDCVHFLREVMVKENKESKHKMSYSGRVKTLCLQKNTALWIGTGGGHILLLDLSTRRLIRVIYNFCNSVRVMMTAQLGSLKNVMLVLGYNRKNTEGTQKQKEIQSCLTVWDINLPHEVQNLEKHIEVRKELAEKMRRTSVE

Compound	Ki [nM]
CNc1nc(Nc2cc(F)c(C(=O)N3CCC(N4CCOCC4)CC3)cc2OC)ncc1C(F)(F)F [Compound 8, [2-Fluoro-5-methoxy-4-(4-methylamino-5-trifluoromethyl-pyrimidin-2-ylamino)-phenyl]-(4-morpholin-4-yl-piperidin-1-yl)-methanone]	0.7
CNc1nc(Nc2ccc(C(=O)N3CCOCC3)c(F)c2F)ncc1C(F)(F)F [Compound 12, [2,3-Difluoro-4-(4-methylamino-5-trifluoromethyl-pyrimidin-2-ylamino)-phenyl]-morpholin-4-yl-methanone]	13.5
CCNc1nc(Nc2cc(F)c(C(=O)N3CCOCC3)cc2Cl)ncc1C(F)(F)F [Compound 74, [5-Chloro-4-(4-ethylamino-5-trifluoromethyl-pyrimidin-2-ylamino)-2-fluoro-phenyl]-morpholin-4-yl-methanone]	4.65
COc1cc(C(=O)N2CCOCC2)c(C)cc1Nc1ncc(Cl)c(OC)n1 [Compound 93, [4-(5-Chloro-4-methoxy-pyrimidin-2-ylamino)-5-methoxy-2-methyl-phenyl]-morpholin-4-yl-methanone]	5.55
CNc1nc(Nc2cc(OC)c(C(=O)N3CCCC3)cc2OCCF)ncc1C(F)(F)F [Compound 85, [5-(2-Fluoro-ethoxy)-2-methoxy-4-(4-methylamino-5-trifluoromethyl-pyrimidin-2-ylamino)-phenyl]-pyrrolidin-1-yl-methanone]	4.72
COc1cc(C(=O)N2CCOCC2)c(C)cc1Nc1ncc(C(F)(F)F)c(NC2CC2)n1 [Compound 42, [4-(4-Cyclopropylamino-5-trifluoromethyl-pyrimidin-2-ylamino)-5-methoxy-2-methyl-phenyl]-morpholin-4-yl-methanone]	0.31
CNc1nc(Nc2cc(OC)c(C(=O)N3CCOCC3)cc2OC)ncc1C(F)(F)F [Compound 65, [2,5-Dimethoxy-4-(4-methylamino-5-trifluoromethyl-pyrimidin-2-ylamino)-phenyl]-morpholin-4-yl-methanone]	1.09
CNc1nc(Nc2cc(OC(F)(F)F)c(C(=O)N3CCOCC3)cc2OC)ncc1C(F)(F)F [Compound 124, [5-Methoxy-4-(4-methylamino-5-trifluoromethyl-pyrimidin-2-ylamino)-2-trifluoromethoxy-phenyl]-morpholin-4-yl-methanone]	4.3
CCNc1nc(Nc2cc(F)c(C(=O)N(C)CC(C)(C)O)cc2OC)ncc1C(F)(F)F [Compound 19, 4-(4-Ethylamino-5-trifluoromethyl-pyrimidin-2-ylamino)-2-fluoro-N-(2-hydroxy-2-methyl-propyl)-5-methoxy-N-methyl-benzamide]	1.94
CNc1nc(Nc2cc(F)c(C(=O)N3CCOCC3)cc2C)ncc1C(F)(F)F [Compound 92, [2-Fluoro-5-methyl-4-(4-methylamino-5-trifluoromethyl-pyrimidin-2-ylamino)-phenyl]-morpholin-4-yl-methanone]	3.64
CNc1nc(Nc2cc(O)c(C(=O)N3CCOCC3)cc2Cl)ncc1C(F)(F)F [Compound 10, [5-Chloro-2-hydroxy-4-(4-methylamino-5-trifluoromethyl-pyrimidin-2-ylamino)-phenyl]-morpholin-4-yl-methanone]	11.6
[2H]C1([2H])OC([2H])([2H])C([2H])([2H])N(C(=O)c2cc(Cl)c(Nc3ncc(C(F)(F)F)c(NCC)n3)cc2OC)C1([2H])[2H] [Compound 86, (5-chloro-4-(4-(ethylamino)-5-(trifluoromethyl)pyrimidin-2-ylamino)-2-methoxyphenyl)(perdeuteromorpholino)methanone]	4.09
CNc1nc(Nc2cc(F)c(C(=O)N3CCOCC3)cc2F)ncc1Cl [Compound 17, [4-(5-Chloro-4-methylamino-pyrimidin-2-ylamino)-2,5-difluoro-phenyl]-morpholin-4-yl-methanone]	35.6
COc1cc(Nc2ncc(C(F)(F)F)c(NC3CCC3)n2)c(F)cc1C(=O)N1CCOCC1 [Compound 112, [4-(4-Cyclobutylamino-5-trifluoromethyl-pyrimidin-2-ylamino)-5-fluoro-2-methoxy-phenyl]-morpholin-4-yl-methanone]	0.353
CNc1nc(Nc2cc(F)c(C(=O)N3CCCC3)cc2OCF)ncc1C(F)(F)F [Compound 95, [2-Fluoro-5-fluoromethoxy-4-(4-methylamino-5-trifluoromethyl-pyrimidin-2-ylamino)-phenyl]-pyrrolidin-1-yl-methanone]	6.93
CCNc1nc(Nc2cc(OC(F)F)c(C(=O)N3CCOCC3)cc2Cl)ncc1C(F)(F)F [Compound 78, [5-Chloro-2-difluoromethoxy-4-(4-ethylamino-5-trifluoromethyl-pyrimidin-2-ylamino)-phenyl]-morpholin-4-yl-methanone]	6.87
CNc1nc(Nc2cc(OC)c(C(=O)N3CCN(C4COC4)CC3)cc2Cl)ncc1C(F)(F)F [Compound 23, [5-Chloro-2-methoxy-4-(4-methylamino-5-trifluoromethyl-pyrimidin-2-ylamino)-phenyl]-(4-oxetan-3-yl-piperazin-1-yl)-methanone]	4.09
COc1cc(C(=O)N2CCOCC2)c(F)cc1Nc1ncc(C(F)(F)F)c(OC)n1 [Compound 50, [2-Fluoro-5-methoxy-4-(4-methoxy-5-trifluoromethyl-pyrimidin-2-ylamino)-phenyl]-morpholin-4-yl-methanone]	33.3
CCNc1nc(Nc2cc(Cl)c(C(=O)N3CCOCC3)cc2F)ncc1C(F)(F)F [Compound 59, [2-Chloro-4-(4-ethylamino-5-trifluoromethyl-pyrimidin-2-ylamino)-5-fluoro-phenyl]-morpholin-4-yl-methanone]	4.31
CNc1nc(Nc2cc(Cl)c(C(=O)N3CCOCC3)cc2F)ncc1C(F)(F)F [Compound 53, [2-Chloro-5-fluoro-4-(4-methylamino-5-trifluoromethyl-pyrimidin-2-ylamino)-phenyl]-morpholin-4-yl-methanone]	19.6
CNc1nc(Nc2cc(C)c(C(=O)N3CCOCC3)cc2C)ncc1C(F)(F)F [Compound 130, [2,5-Dimethyl-4-(4-methylamino-5-trifluoromethyl-pyrimidin-2-ylamino)-phenyl]-morpholin-4-yl-methanone]	4.74
COc1nc(Nc2ccc(C(=O)N3CCOCC3)cc2O)ncc1Cl [Compound 9, [4-(5-Chloro-4-methoxy-pyrimidin-2-ylamino)-3-hydroxy-phenyl]-morpholin-4-yl-methanone]	120
CCOc1cc(C(=O)N2CCOCC2)c(C)cc1Nc1ncc(C(F)(F)F)c(NC)n1 [Compound 100, [5-Ethoxy-2-methyl-4-(4-methylamino-5-trifluoromethyl-pyrimidin-2-ylamino)-phenyl]-morpholin-4-yl-methanone]	1.05
CNc1nc(Nc2cc(F)c(C(=O)N3C[C@@H]4C[C@H]3CO4)cc2OC)ncc1C(F)(F)F [Compound 11, [2-Fluoro-5-methoxy-4-(4-methylamino-5-trifluoromethyl-pyrimidin-2-ylamino)-phenyl]-(1S,4S)-2-oxa-5-aza-bicyclo[2.2.1]hept-5-yl-methanone]	2.1
CNc1nc(Nc2cc(C)c(C(=O)NCC(C)(C)O)cc2OC)ncc1C(F)(F)F [Compound 116, N-(2-Hydroxy-2-methyl-propyl)-5-methoxy-2-methyl-4-(4-methylamino-5-trifluoromethyl-pyrimidin-2-ylamino)-benzamide]	1.19

Reference: patent publication US8809331B2 (Genentech, Inc., priority 2011, dated 2014)
